{
  "source": "patent US20230212144A1",
  "about": "“5-MEMBERED HETEROARYL DERIVATIVE CONTAINING AT LEAST ONE N, AND PHARMACEUTICAL COMPOSITION FOR PREVENTING OR TREATING MENTAL DISORDERS, CONTAINING SAME AS ACTIVE INGREDIENT” (DAEGU-GYEONGBUK MEDICAL INNOVATION FOUNDATION, priority 2020, published 2023)",
  "key": {"[1]": {"target": "serotonin transporter (SERT) (Homo sapiens, UniProt P31645)", "sequence (P31645 whole entry, species assumed)": "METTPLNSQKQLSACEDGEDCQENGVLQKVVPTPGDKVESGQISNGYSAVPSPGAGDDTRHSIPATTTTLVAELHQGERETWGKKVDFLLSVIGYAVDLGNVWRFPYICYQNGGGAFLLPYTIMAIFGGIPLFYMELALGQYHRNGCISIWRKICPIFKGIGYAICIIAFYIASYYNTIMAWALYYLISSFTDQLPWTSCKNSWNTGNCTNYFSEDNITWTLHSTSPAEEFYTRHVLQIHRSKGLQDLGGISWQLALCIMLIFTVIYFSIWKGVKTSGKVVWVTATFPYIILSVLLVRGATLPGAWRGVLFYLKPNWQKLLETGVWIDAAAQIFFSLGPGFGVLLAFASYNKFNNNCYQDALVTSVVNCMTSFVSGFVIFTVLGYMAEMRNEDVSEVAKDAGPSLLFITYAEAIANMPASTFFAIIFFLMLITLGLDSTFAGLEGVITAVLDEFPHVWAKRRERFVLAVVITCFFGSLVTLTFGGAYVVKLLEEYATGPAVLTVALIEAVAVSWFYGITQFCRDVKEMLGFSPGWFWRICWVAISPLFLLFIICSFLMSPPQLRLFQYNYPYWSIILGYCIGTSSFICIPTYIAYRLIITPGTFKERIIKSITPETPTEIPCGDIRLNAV", "assay": "Serotonin reuptake inhibition, [3H]-5-HT, cells transfected with 5-HT transporter cDNA", "conditions": "for Triple reuptake inhibition (Ratio %) SERT: compound 1 μM, relative to control without compound (100%), lower value = stronger inhibition", "description": "(§1) After removing the medium, each compound of Examples or Comparative Examples diluted to 1 μM in uptake buffer was added to a concentration of 200 μL/well and cultured at 37° C. for 15 minutes. 100 μL of uptake buffer containing 20-30 nM [3H]-DA was added and cultured at 37° C. for 5 minutes. The reaction solution was quickly removed and washed three times with 1 mL ice-cold uptake buffer. After dissolving the resultant in 1% SDS (0.5 mL), the degree of binding of radioisotope-labeled dopamine to the transporter was measured.\n(§2) For norepinephrine(NE) and serotonin(5-HT), the degree of binding of radioisotope-labeled norepinephrine or serotonin to the transporter was measured in the same manner as above, except that cells transfected with NE or 5-HT transporter cDNA were used and [3H]-NE or [3H]-5-HT was used as a substrate.\n(§3) In addition, when evaluating the reuptake inhibitory effect on dopamine, norepinephrine, and serotonin, the same method was performed without treating each compound of Examples or Comparative Examples as a control, the degree of binding of radioisotope-labeled dopamine, norepinephrine, and serotonin to the transporter was measured, and by using this as a reference (100%), the triple reuptake inhibitory effect was evaluated as a relative ratio (Ratio %). That is, in the control group, the binding of dopamine, norepinephrine, and serotonin to transporters is not inhibited, but when each compound of Examples is treated and thus the binding is inhibited, the Ratio % value decreases."}, "[2]": {"target": "dopamine transporter (DAT) (Homo sapiens, UniProt Q01959)", "sequence (Q01959 whole entry, species assumed)": "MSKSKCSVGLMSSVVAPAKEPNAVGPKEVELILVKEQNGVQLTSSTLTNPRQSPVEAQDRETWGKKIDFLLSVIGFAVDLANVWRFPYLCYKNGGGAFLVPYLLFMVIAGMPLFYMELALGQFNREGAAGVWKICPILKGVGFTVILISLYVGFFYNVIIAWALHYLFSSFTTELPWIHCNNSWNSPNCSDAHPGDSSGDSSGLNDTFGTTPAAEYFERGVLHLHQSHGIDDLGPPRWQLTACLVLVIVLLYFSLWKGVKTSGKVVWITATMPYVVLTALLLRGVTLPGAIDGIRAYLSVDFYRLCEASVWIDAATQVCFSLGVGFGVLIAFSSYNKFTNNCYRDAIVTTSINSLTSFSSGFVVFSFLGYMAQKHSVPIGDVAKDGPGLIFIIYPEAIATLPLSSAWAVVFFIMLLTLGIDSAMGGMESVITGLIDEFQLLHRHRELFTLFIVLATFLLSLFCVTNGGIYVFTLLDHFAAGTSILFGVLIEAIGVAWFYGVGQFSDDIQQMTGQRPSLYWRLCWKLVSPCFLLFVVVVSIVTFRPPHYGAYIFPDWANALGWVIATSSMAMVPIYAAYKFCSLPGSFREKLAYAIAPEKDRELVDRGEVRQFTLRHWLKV", "assay": "Dopamine reuptake inhibition, [3H]-DA, HEK-293 cells transfected with dopamine transporter cDNA", "conditions": "for Triple reuptake inhibition (Ratio %) DAT: compound 1 μM, relative to control without compound (100%), lower value = stronger inhibition", "description": "as §1, §3"}, "[3]": {"target": "norepinephrine transporter (NET) (Homo sapiens, UniProt P23975)", "sequence (P23975 whole entry, species assumed)": "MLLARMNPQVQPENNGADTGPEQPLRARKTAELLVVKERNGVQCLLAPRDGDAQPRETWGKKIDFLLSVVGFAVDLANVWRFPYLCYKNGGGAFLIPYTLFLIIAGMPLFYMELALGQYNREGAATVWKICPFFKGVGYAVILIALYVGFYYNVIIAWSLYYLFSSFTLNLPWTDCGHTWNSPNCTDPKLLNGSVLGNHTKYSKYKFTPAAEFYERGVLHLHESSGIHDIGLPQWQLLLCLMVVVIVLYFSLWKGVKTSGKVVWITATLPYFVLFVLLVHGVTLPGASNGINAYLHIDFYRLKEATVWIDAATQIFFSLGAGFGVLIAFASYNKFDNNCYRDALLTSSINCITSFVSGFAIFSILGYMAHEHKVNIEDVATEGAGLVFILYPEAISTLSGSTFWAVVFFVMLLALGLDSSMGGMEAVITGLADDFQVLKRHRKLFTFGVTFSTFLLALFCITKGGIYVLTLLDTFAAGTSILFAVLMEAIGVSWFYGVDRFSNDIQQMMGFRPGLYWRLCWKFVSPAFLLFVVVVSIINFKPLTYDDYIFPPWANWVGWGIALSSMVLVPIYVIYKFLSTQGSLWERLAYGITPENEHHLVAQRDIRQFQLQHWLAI", "assay": "Norepinephrine reuptake inhibition, [3H]-NE, cells transfected with NE transporter cDNA", "conditions": "for Triple reuptake inhibition (Ratio %) NET: compound 1 μM, relative to control without compound (100%), lower value = stronger inhibition", "description": "as §1, §2, §3"}},
  "data": [
    {"smiles": "FC(F)(F)c1ccc(-c2nnc(CN3CCC(Cc4ccccc4)CC3)[nH]2)cc1", "note": "[Example 50, 4-benzyl-1-((5-(4-(trifluoromethyl)phenyl)-4H-1,2,4-triazol-3-yl)methyl)piperidine]", "values": [
      {"measurement": "IC50", "setting": "[1]", "result": 5700, "unit": "nM"},
      {"measurement": "Triple reuptake inhibition (Ratio %) SERT", "setting": "[1]", "result": 66.02, "unit": "%"},
      {"measurement": "IC50", "setting": "[2]", "result": 236, "unit": "nM"},
      {"measurement": "Triple reuptake inhibition (Ratio %) DAT", "setting": "[2]", "result": 20.84, "unit": "%"},
      {"measurement": "IC50", "setting": "[3]", "result": 176, "unit": "nM"},
      {"measurement": "Triple reuptake inhibition (Ratio %) NET", "setting": "[3]", "result": 27.46, "unit": "%"}
    ]},
    {"smiles": "CC(=O)Nc1ccc(-c2nnc(CN3CCC(Cc4ccccc4)CC3)[nH]2)cc1", "note": "[Example 51, N-(4-(5-((4-benzylpiperidin-1-yl)methyl)-4H-1,2,4-triazol-3-yl)phenyl)acetamide]", "values": [
      {"measurement": "Triple reuptake inhibition (Ratio %) SERT", "setting": "[1]", "result": 38.36, "unit": "%"},
      {"measurement": "Triple reuptake inhibition (Ratio %) DAT", "setting": "[2]", "result": 75.88, "unit": "%"},
      {"measurement": "Triple reuptake inhibition (Ratio %) NET", "setting": "[3]", "result": 56.36, "unit": "%"}
    ]},
    {"smiles": "Oc1ccc2cc(-c3nnc(CN4CCC(Cc5ccccc5)CC4)[nH]3)ccc2c1", "note": "[Example 52, 6-(5-((4-benzylpiperidin-1-yl)methyl)-4H-1,2,4-triazol-3-yl)naphthalen-2-ol]", "values": [
      {"measurement": "Triple reuptake inhibition (Ratio %) SERT", "setting": "[1]", "result": 52.31, "unit": "%"},
      {"measurement": "Triple reuptake inhibition (Ratio %) DAT", "setting": "[2]", "result": 48.72, "unit": "%"},
      {"measurement": "Triple reuptake inhibition (Ratio %) NET", "setting": "[3]", "result": 50.92, "unit": "%"}
    ]},
    {"smiles": "c1ccc(CC2CCN(Cc3nnc(-c4ccc(Oc5ccccc5)cc4)[nH]3)CC2)cc1", "note": "[Example 53, 4-benzyl-1-((5-(4-phenoxyphenyl)-4H-1,2,4-triazol-3-yl)methyl)piperidine]", "values": [
      {"measurement": "Triple reuptake inhibition (Ratio %) SERT", "setting": "[1]", "result": 77.61, "unit": "%"},
      {"measurement": "Triple reuptake inhibition (Ratio %) DAT", "setting": "[2]", "result": 52.90, "unit": "%"},
      {"measurement": "Triple reuptake inhibition (Ratio %) NET", "setting": "[3]", "result": 28.99, "unit": "%"}
    ]},
    {"smiles": "FC(F)(F)Oc1cccc(-c2nnc(CN3CCC(Cc4ccccc4)CC3)[nH]2)c1", "note": "[Example 54, 4-benzyl-1-((5-(3-(trifluoromethoxy)phenyl)-4H-1,2,4-triazol-3-yl)methyl)piperidine]", "values": [
      {"measurement": "Triple reuptake inhibition (Ratio %) SERT", "setting": "[1]", "result": 88.15, "unit": "%"},
      {"measurement": "Triple reuptake inhibition (Ratio %) DAT", "setting": "[2]", "result": 38.97, "unit": "%"},
      {"measurement": "Triple reuptake inhibition (Ratio %) NET", "setting": "[3]", "result": 52.40, "unit": "%"}
    ]},
    {"smiles": "FC(F)(F)c1cccc(-c2nnc(CN3CCC(Cc4ccccc4)CC3)[nH]2)c1", "note": "[Example 55, 4-benzyl-1-((5-(3-(trifluoromethyl)phenyl)-4H-1,2,4-triazol-3-yl)methyl)piperidine]", "values": [
      {"measurement": "Triple reuptake inhibition (Ratio %) SERT", "setting": "[1]", "result": 86.78, "unit": "%"},
      {"measurement": "Triple reuptake inhibition (Ratio %) DAT", "setting": "[2]", "result": 40.14, "unit": "%"},
      {"measurement": "Triple reuptake inhibition (Ratio %) NET", "setting": "[3]", "result": 66.71, "unit": "%"}
    ]},
    {"smiles": "COc1ccc2c(-c3nnc(CN4CCC(Cc5ccccc5)CC4)[nH]3)c[nH]c2c1", "note": "[Example 56, 3-(5-((4-benzylpiperidin-1-yl)methyl)-4H-1,2,4-triazol-3-yl)-6-methoxy-1H-indole]", "values": [
      {"measurement": "IC50", "setting": "[1]", "result": 300, "unit": "nM"},
      {"measurement": "Triple reuptake inhibition (Ratio %) SERT", "setting": "[1]", "result": 15.26, "unit": "%"},
      {"measurement": "IC50", "setting": "[2]", "result": 1200, "unit": "nM"},
      {"measurement": "Triple reuptake inhibition (Ratio %) DAT", "setting": "[2]", "result": 45.52, "unit": "%"},
      {"measurement": "IC50", "setting": "[3]", "result": 640, "unit": "nM"},
      {"measurement": "Triple reuptake inhibition (Ratio %) NET", "setting": "[3]", "result": 39.66, "unit": "%"}
    ]},
    {"smiles": "NC(=O)c1ccc2[nH]c(-c3nnc(CN4CCC(Cc5ccccc5)CC4)[nH]3)cc2c1", "note": "[Example 57, 2-(5-((4-benzylpiperidin-1-yl)methyl)-4H-1,2,4-triazol-3-yl)-1H-indol-5-carboxamide]", "values": [
      {"measurement": "IC50", "setting": "[1]", "result": 580, "unit": "nM"},
      {"measurement": "Triple reuptake inhibition (Ratio %) SERT", "setting": "[1]", "result": 56.55, "unit": "%"},
      {"measurement": "IC50", "setting": "[2]", "result": 208, "unit": "nM"},
      {"measurement": "Triple reuptake inhibition (Ratio %) DAT", "setting": "[2]", "result": 20.95, "unit": "%"},
      {"measurement": "IC50", "setting": "[3]", "result": 463, "unit": "nM"},
      {"measurement": "Triple reuptake inhibition (Ratio %) NET", "setting": "[3]", "result": 37.21, "unit": "%"}
    ]},
    {"smiles": "CN(C)CCNC(=O)c1ccc(-c2nnc(CN3CCC(Cc4ccccc4)CC3)[nH]2)cc1", "note": "[Example 58, 4-(5-((4-benzylpiperidin-1-yl)methyl)-4H-1,2,4-triazol-3-yl)-N-(2-(dimethylamino)ethyl)benzoamide]", "values": [
      {"measurement": "Triple reuptake inhibition (Ratio %) SERT", "setting": "[1]", "result": 50.24, "unit": "%"},
      {"measurement": "Triple reuptake inhibition (Ratio %) DAT", "setting": "[2]", "result": 77.67, "unit": "%"},
      {"measurement": "Triple reuptake inhibition (Ratio %) NET", "setting": "[3]", "result": 76.51, "unit": "%"}
    ]},
    {"smiles": "COc1ccc2c(-c3nnc(CN4CCC(Cc5ccc(Cl)c(Cl)c5)CC4)[nH]3)c[nH]c2c1", "note": "[Example 59, 3-(5-((4-(3,4-dichlorobenzyl)piperidin-1-yl)methyl)-4H-1,2,4-triazol-3-yl)-6-methoxy-1H-indole]", "values": [
      {"measurement": "IC50", "setting": "[1]", "result": 226, "unit": "nM"},
      {"measurement": "Triple reuptake inhibition (Ratio %) SERT", "setting": "[1]", "result": 31.88, "unit": "%"},
      {"measurement": "Triple reuptake inhibition (Ratio %) DAT", "setting": "[2]", "result": 75.06, "unit": "%"},
      {"measurement": "Triple reuptake inhibition (Ratio %) NET", "setting": "[3]", "result": 77.82, "unit": "%"}
    ]},
    {"smiles": "COC(=O)c1cccc2c(-c3nnc(CN4CCC(Cc5ccc(Cl)c(Cl)c5)CC4)[nH]3)c[nH]c12", "note": "[Example 60, methyl 3-(5-((4-(3,4-dichlorobenzyl)piperidin-1-yl)methyl)-4H-1,2,4-triazol-3-yl)-1H-indol-7-carboxylate]", "values": [
      {"measurement": "IC50", "setting": "[1]", "result": 1870, "unit": "nM"},
      {"measurement": "Triple reuptake inhibition (Ratio %) SERT", "setting": "[1]", "result": 61.70, "unit": "%"},
      {"measurement": "Triple reuptake inhibition (Ratio %) DAT", "setting": "[2]", "result": 94.44, "unit": "%"},
      {"measurement": "Triple reuptake inhibition (Ratio %) NET", "setting": "[3]", "result": 95.63, "unit": "%"}
    ]},
    {"smiles": "FC(F)(F)Oc1ccc(-c2nnc(CN3CCC(Cc4ccc(Cl)c(Cl)c4)CC3)[nH]2)cc1", "note": "[Example 61, 4-(3,4-dichlorobenzyl)-1-((5-(4-(trifluoromethoxy)phenyl)-4H-1,2,4-triazol-3-yl)methyl)piperidine]", "values": [
      {"measurement": "Triple reuptake inhibition (Ratio %) SERT", "setting": "[1]", "result": 82.77, "unit": "%"},
      {"measurement": "Triple reuptake inhibition (Ratio %) DAT", "setting": "[2]", "result": 59.39, "unit": "%"},
      {"measurement": "Triple reuptake inhibition (Ratio %) NET", "setting": "[3]", "result": 48.25, "unit": "%"}
    ]},
    {"smiles": "FC(F)(F)c1ccc(-c2nnc(CN3CCC(Cc4ccc(Cl)c(Cl)c4)CC3)[nH]2)cc1", "note": "[Example 62, 4-(3,4-dichlorobenzyl)-1-((5-(4-(trifluoromethyl)phenyl)-4H-1,2,4-triazol-3-yl)methyl)piperidine]", "values": [
      {"measurement": "Triple reuptake inhibition (Ratio %) SERT", "setting": "[1]", "result": 79.73, "unit": "%"},
      {"measurement": "Triple reuptake inhibition (Ratio %) DAT", "setting": "[2]", "result": 52.96, "unit": "%"},
      {"measurement": "Triple reuptake inhibition (Ratio %) NET", "setting": "[3]", "result": 36.41, "unit": "%"}
    ]},
    {"smiles": "COC(=O)c1ccc(-c2nnc(CN3CCC(Cc4ccccc4)CC3)[nH]2)cc1N", "note": "[Example 63, methyl 2-amino-4-(5-((4-benzylpiperidin-1-yl)methyl)-4H-1,2,4-triazol-3-yl)benzoate]", "values": [
      {"measurement": "IC50", "setting": "[1]", "result": 1840, "unit": "nM"},
      {"measurement": "Triple reuptake inhibition (Ratio %) SERT", "setting": "[1]", "result": 61.10, "unit": "%"},
      {"measurement": "IC50", "setting": "[2]", "result": 221, "unit": "nM"},
      {"measurement": "Triple reuptake inhibition (Ratio %) DAT", "setting": "[2]", "result": 26.54, "unit": "%"},
      {"measurement": "IC50", "setting": "[3]", "result": 327, "unit": "nM"},
      {"measurement": "Triple reuptake inhibition (Ratio %) NET", "setting": "[3]", "result": 27.25, "unit": "%"}
    ]},
    {"smiles": "Fc1ccc2[nH]c(-c3nnc(CN4CCN(Cc5ccccc5)CC4)[nH]3)cc2c1", "note": "[Example 64, 2-(5-((4-benzylpiperazin-1-yl)methyl)-4H-1,2,4-triazol-3-yl)-5-fluoro-1H-indole]", "values": [
      {"measurement": "Triple reuptake inhibition (Ratio %) SERT", "setting": "[1]", "result": 91.98, "unit": "%"},
      {"measurement": "Triple reuptake inhibition (Ratio %) DAT", "setting": "[2]", "result": 32.65, "unit": "%"},
      {"measurement": "Triple reuptake inhibition (Ratio %) NET", "setting": "[3]", "result": 64.96, "unit": "%"}
    ]},
    {"smiles": "Clc1ccc2[nH]c(-c3nnc(CN4CCN(Cc5ccccc5)CC4)[nH]3)cc2c1", "note": "[Example 65, 2-(5-((4-benzylpiperazin-1-yl)methyl)-4H-1,2,4-triazol-3-yl)-5-chloro-1H-indole]", "values": [
      {"measurement": "Triple reuptake inhibition (Ratio %) SERT", "setting": "[1]", "result": 92.53, "unit": "%"},
      {"measurement": "Triple reuptake inhibition (Ratio %) DAT", "setting": "[2]", "result": 28.61, "unit": "%"},
      {"measurement": "Triple reuptake inhibition (Ratio %) NET", "setting": "[3]", "result": 67.11, "unit": "%"}
    ]}
  ]
}
